One series has as its target T1, LAT1 (Homo sapiens, UniProt Q01650).
T1 construct: Using human bladder cancer cell strain T24 cells, in which LAT1 only was strongly expressed; endogenous in cells; host or cells: T24 human bladder cancer cells
Briefly: LAT1 inhibiting activity: inhibition of 14C-L-leucine uptake in T24 cells. The series is classed as cell-based. As to conditions: 1 μM 14C-Leu, 1-minute uptake. On the procedure: 1) To each of the weighed test compounds, DMSO was added to prepare a 100 mM solution or suspension as a DMSO stock. In an assay, the stock was diluted 1,000 fold with a buffer described below. The final concentration of the test compound was 100 μM and the final concentration of DMSO was 0.1%.
2) The LAT1 inhibiting activity of the test compound was determined in the following manner. Using human bladder cancer cell strain T24 cells, in which LAT1 only was strongly expressed, inhibiting activity of each test compound against “^14C”-L-leucine uptake was determined as the LAT1 inhibiting activity.
T24 cells in a logarithmic growth-phase were transferred to a 24-well plate at 0.8×10^5 cell/well and cultured at 37° C. for 2 days. After the plate was incubated at 37° C. on a water bath for 5 minutes, the fixed cells were washed three times with a Hank's balanced salt solution (HBSS: 25 mM HEPES, 125 mM choline chloride, 5.6 mM glucose, 4.8 mM KCl, 1.2 mM MgSO4, 1.2 mM KH2PO4, 1.3 mM CaCl2, pH 7.4) warmed to 37° C., not containing Na^+, to which 500 μl of HBSS (37° C.) was added. Then, further incubation was carried out for 7 minutes.
After the incubation was finished, a supernatant was replaced with HBSS containing 1 μM ^14C-Leu and 100 μM test compound (37° C.), followed by 1-minute uptake. Then, the cells were washed three times with HBSS of 4° C. The washed cells were added with 500 μl of 0.1 N NaOH to dissolve the cells for 20 minutes. The cell solution was transferred to a vial, to which 3 ml of a scintillator was added to measure the radioactivity with a liquid scintillation counter.
Inhibition % was calculated by the following formula. Inhibition %=100−(radioactivity of the well added with the test compound)/(radioactivity of the well not added with the test compound)×100

Series [1] deals with T2, human LAT1 (hLAT1) (Homo sapiens, UniProt Q01650).
T2 construct: expressed in transfected cells; host or cells: Xenopus laevis oocytes injected with cRNA
Briefly: Inhibition of leucine uptake into hLAT1 expressing Xenopus oocytes. The series is classed as cell-based. Conditions: 10 μM 14C-Leu, 30 minutes uptake, oocytes with hLAT1 and h4F2hc cRNA. The procedure: (§1) 1) First, human LAT1 (hereinafter referred to as hLAT1), human LAT2 (hereinafter referred to as hLAT2) and human 4F2hc (hereinafter referred to as h4F2hc) were linearized by restriction enzyme treatment. After ethanol precipitation, they were dissolved in a DEPC treatment solution to prepare a mold cDNA. Then, in vitro transcription reaction was carried out in the following manner.
(§2) Reaction composition (50 μl in total) • Mold cDNA 1.5 μg • RNasin RNase inhibitor (Promega) 100 U • rNTP (Amersham. Pharmacia) 10 mM each (rGTP was 1 mM) • DTT 30 mM • m7G(5′)ppp(5′)G (Amersham. Pharmacia) […] • RNA polymerase (Stratagene) 50 U • Transcription buffer
(§3) As the RNA polymerase for hLAT1, hLAT2 and h4F2hc, T3, SP6 and T7 were used, respectively.
(§4) After the above reagents were mixed, they were reacted at 37° C. for 10 minutes, added with 1 μL of 5 mM rGTP, and reacted again at 37° C. for 10 minutes. Further, 1 μL of 5 mM rGTP was added and the reaction was carried out again at 37° C. for 10 minutes. Then, RNase-free DNase (Stratagene) was added and mixed, followed by incubation at 37° C. for 20 minutes. The reaction solution was sequentially extracted with phenol/chloroform, and then with chloroform. Then, half amount of 7.5 M NH4OAc and 2.5-fold amount of cold ethanol were added to perform ethanol precipitation. After centrifugation at 15000 rpm for 30 minutes, the resulting precipitate was washed with cold 80% ethanol and dissolved in 100 μL of a DEPC treatment solution. Thereafter, ethanol precipitation was performed again. The precipitate obtained by centrifugation at 15000 rpm for 30 minutes was washed with cold 80% ethanol and dried for 20 minutes in a centrifugal concentrator. Then, it was dissolved in a DEPC treatment solution to 0.5 mg/mL to prepare a cRNA solution. Thus, cRNA was prepared by in vitro transcription reaction.
(§5) 2) Xenopus laevis was anesthetized by immersing into an anesthetic solution (0.2% MS-222, 0.3% KHCO3), and then cut open in the abdominal region on ice to take out an oocyte mass under the peritoneum. The extracted oocyte mass was shredded with tweezers, which was added to an OR2 culture medium (5 mM HEPES, 82.5 mM NaCl, 2 mM KCl, 1 mM MgCl2, pH 7.5) containing 2 mg/mL of collagenase, incubated at room temperature for about 30 minutes, washed with the OR2 culture medium and transferred into a Barth culture medium (10 mM HEPES, 88 mM NaCl, 1 mM KCl, 0.33 mM Ca(NO3)2, 0.41 mM CaCl2, 0.82 mM MgSO4, 2.4 mM NaHCO3, pH 7.4).
(§6) Then, a follicular cell layer covering the oocytes was peeled under a stereoscopic microscope to isolate the oocytes, to which 50 nL of a cRNA solution was added, respectively. As the cRNA, an equimolar mixture of hLAT1 cRNA and h4F2hc cRNA was injected into the oocytes for hLAT1 expression, and an equimolar mixture of hLAT2 cRNA and h4F2hc cRNA was injected into the oocytes for hLAT2 expression.
(§7) The control cell was injected with distilled water.
(§8) 3) The oocytes after the injection were cultured in a Barth culture medium containing gentamicin for 2 days, from which healthy oocytes were selected and transferred to a 24-well plate at 8-10 cell/well.
(§9) First, after washing twice with choline 100 (5 mM HEPES, 100 mM choline Cl, 2 mM KCl, 1.8 mM CaCl2, 1 mM MgCl2, pH 7.4) at room temperature, choline 100 containing 10 μM ^14C-Leu and specimens of various concentrations was added for an uptake for 30 minutes. Then, after washing with choline 100 of 4° C. six times, the oocytes were transferred to vials one by one and 250 μL of 10% SDS was added thereto, which was shaken at room temperature for an hour to be dissolved. After an hour, the solution was added with 3 mL of a scintillator to measure the radioactivity using a liquid scintillation counter. Inhibition rate was calculated by the following formula using an average value of 8 to 10 cells. Inhibition rate (%)=100−(radioactivity of the well added with the test compound)/(radioactivity of the well not added with the test compound)×100 […]

Series [2] concerns human LAT1 (hLAT1). The series is described as above. Format: cell-based. Conditions: IC50 hLAT2 expressing cells / IC50 hLAT1 expressing cells. The procedure: as §1, §2, §3, §4, §5, §6, §7, §8, §9
The target in another series is T3, human LAT2 (hLAT2) (Homo sapiens, UniProt Q9UHI5).
T3 construct: expressed in transfected cells; host or cells: Xenopus laevis oocytes injected with cRNA
T3 sequence (Q9UHI5 1-535): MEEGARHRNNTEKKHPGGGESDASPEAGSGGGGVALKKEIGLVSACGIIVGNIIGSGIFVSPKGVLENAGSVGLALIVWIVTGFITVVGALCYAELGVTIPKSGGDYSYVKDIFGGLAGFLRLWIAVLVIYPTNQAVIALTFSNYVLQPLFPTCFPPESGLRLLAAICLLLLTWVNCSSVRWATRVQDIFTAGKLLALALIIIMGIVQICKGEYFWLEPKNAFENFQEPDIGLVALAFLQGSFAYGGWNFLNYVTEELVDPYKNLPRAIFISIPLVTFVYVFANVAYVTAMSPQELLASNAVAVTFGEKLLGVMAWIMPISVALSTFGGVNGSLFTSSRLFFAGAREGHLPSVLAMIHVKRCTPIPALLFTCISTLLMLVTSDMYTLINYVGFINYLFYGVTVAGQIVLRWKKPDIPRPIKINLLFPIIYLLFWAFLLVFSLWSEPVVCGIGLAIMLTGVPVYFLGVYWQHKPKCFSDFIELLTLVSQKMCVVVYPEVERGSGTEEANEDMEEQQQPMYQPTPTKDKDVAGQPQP
In words: Inhibition of leucine uptake into hLAT2 expressing Xenopus oocytes. Format: cell-based. As to conditions: 10 μM 14C-Leu, 30 minutes uptake, oocytes with hLAT2 and h4F2hc cRNA. The procedure: as §1, §2, §3, §4, §5, §6, §7, §8, §9

Each structure is given as a SMILES string.

By melting point is commonly meant the temperature, or range, at which the solid turns liquid. The term IC50 denotes the concentration that gives 50% inhibition.

T2 sequence (Q01650 whole entry): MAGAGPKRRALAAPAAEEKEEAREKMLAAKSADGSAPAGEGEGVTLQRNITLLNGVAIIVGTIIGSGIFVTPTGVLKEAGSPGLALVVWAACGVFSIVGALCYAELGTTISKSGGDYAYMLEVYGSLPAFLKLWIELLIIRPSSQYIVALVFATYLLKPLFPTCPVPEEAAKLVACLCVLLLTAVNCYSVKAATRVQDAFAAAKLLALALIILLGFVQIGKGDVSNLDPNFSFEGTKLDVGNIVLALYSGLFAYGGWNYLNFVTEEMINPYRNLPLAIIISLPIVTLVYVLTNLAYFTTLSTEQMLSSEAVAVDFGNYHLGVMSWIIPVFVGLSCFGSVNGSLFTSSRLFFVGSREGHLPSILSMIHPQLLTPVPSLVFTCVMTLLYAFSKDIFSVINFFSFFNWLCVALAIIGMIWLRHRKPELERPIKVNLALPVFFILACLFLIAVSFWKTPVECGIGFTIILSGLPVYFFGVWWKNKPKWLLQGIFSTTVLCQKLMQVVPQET
T1 sequence (Q01650 whole entry): as above
T1 sequence (P08195 102-630 partner): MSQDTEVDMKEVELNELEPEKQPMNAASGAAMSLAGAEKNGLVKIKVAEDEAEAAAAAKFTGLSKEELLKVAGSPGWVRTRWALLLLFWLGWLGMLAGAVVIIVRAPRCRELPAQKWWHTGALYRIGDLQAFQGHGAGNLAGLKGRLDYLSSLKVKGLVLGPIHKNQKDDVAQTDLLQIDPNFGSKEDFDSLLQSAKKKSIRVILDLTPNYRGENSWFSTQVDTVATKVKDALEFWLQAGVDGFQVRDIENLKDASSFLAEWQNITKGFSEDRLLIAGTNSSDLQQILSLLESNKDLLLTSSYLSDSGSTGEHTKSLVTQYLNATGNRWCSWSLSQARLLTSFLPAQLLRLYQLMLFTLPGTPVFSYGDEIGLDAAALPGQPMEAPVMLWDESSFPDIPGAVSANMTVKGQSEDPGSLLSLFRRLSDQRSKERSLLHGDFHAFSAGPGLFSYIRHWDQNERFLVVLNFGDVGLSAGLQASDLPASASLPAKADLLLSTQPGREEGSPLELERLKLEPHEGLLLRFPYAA

Regarding `N[C@@H](Cc1cc(Cl)c(OCc2cccc3nc(-c4ccccc4)oc23)c(Cl)c1)C(=O)O` [Example 6-2), 3,5-dichloro-O-[(2-phenyl)-benzoxazol-7-yl]methyl-L-tyrosine], the melting point is 233 to 238 °C (dec.). Also, the IC50 against LAT1 amounted to 300 nM. At human LAT1 (hLAT1) [1], this compound returned an IC50 of 100 nM. For the same compound, in the series on human LAT1 (hLAT1) [2], the “Selectivity (L2/L1)” value was determined as 1000 times.

`N[C@@H](Cc1cccc(Oc2ccc(Oc3ccc(O)cc3)cc2)c1)C(=O)O` [Example 57, 3-[4-(4-hydroxyphenoxy)phenoxy]-L-phenylalanine]: the melting point was 234 to 237 °C (dec.). Further, in the series with human LAT1 (hLAT1) [2], the “Selectivity (L2/L1)” value worked out at 0.02 times. In addition, on human LAT2 (hLAT2), the IC50 came out at 200 nM.

Consider `N[C@@H](Cc1cc(Cl)c(OCCc2cccc3nc(-c4ccccc4)oc23)c(Cl)c1)C(=O)O` [Example 23], for which the melting point was 205 to 215 °C (dec.). Besides, the IC50 on human LAT1 (hLAT1) [1] was below 1000 nM. The “Selectivity (L2/L1)” value in the series with human LAT1 (hLAT1) [2] is at least 100 times. Also, the IC50 at human LAT2 (hLAT2) is above 100000 nM.

Turning to `N[C@@H](Cc1cc(Cl)c(OCCc2coc(-c3ccc4ccccc4c3)n2)c(Cl)c1)C(=O)O` [Example 17], the melting point was 232 to 233 °C (dec.). The same compound came in with an IC50 on human LAT1 (hLAT1) [1] below 1000 nM. The “Selectivity (L2/L1)” value in the series with human LAT1 (hLAT1) [2] was at least 100 times. At human LAT2 (hLAT2), this compound yielded an IC50 above 100000 nM.

In the case of `N[C@@H](Cc1cc(Cl)c(OCc2cccc3nc(-c4ccc(O)cc4)oc23)c(Cl)c1)C(=O)O` [Example 22], the melting point is 239 to 241 °C (dec.). This compound also came in with an IC50 against LAT1 of 200 nM.

For the compound `N[C@@H](Cc1cc(Cl)c(OCc2cccc3c(=O)c(CO)c(-c4ccccc4)oc23)c(Cl)c1)C(=O)O` [Example 81], the melting point was 218 to 221 °C (dec.). The same compound yielded an IC50 against LAT1 of 200 nM.

`N[C@@H](Cc1cc(Cl)c(OCCc2coc(-c3ccccc3)n2)c(Cl)c1)C(=O)O` [Example 9] displayed a melting point of 198 to 205 °C. Further, 700 nM corresponded to half-maximal inhibition against human LAT1 (hLAT1) [1] (IC50). In the series on human LAT1 (hLAT1) [2], the “Selectivity (L2/L1)” value was 100 times. The IC50 on human LAT2 (hLAT2) came to 69000 nM.

`N[C@@H](Cc1cccc(Oc2cccc(-c3ccc(Cl)cc3)c2)c1)C(=O)O` [Example 103]: the melting point is 204 to 208 °C (dec.). Further, at LAT1, the IC50 came to 60 nM.

`Nc1c(-c2ccccc2)oc2c(COc3c(Cl)cc(C[C@H](N)C(=O)O)cc3Cl)cccc2c1=O` [Example 83]: the melting point is 226 to 230 °C (dec.). At LAT1, this compound came in with an IC50 of 550 nM.

`N[C@@H](Cc1cc(Cl)c(OCCc2csc(-c3ccccc3)n2)c(Cl)c1)C(=O)O` [Example 15]: the melting point was 205 to 210 °C (dec.). For the same compound, on human LAT1 (hLAT1) [1], the IC50 is below 1000 nM. The “Selectivity (L2/L1)” value in the series on human LAT1 (hLAT1) [2] is recorded as at least 100 times. The compound further had an IC50 against human LAT2 (hLAT2) above 100000 nM.

For the compound `Cc1c(-c2ccccc2)oc2c(COc3c(Cl)cc(C[C@H](N)C(=O)O)cc3Cl)cccc2c1=O` [Example 39], the melting point is 202 to 204 °C (dec.). Besides, 230 nM corresponded to half-maximal inhibition against LAT1 (IC50).

For the compound `N[C@@H](Cc1cccc(OCCc2ccc3c(c2)CCCC3)c1)C(=O)O` [Example 60, 3-[2-[2-(5,6,7,8-tetrahydro-naphthyl)]ethoxy]-L-phenylalanine], the melting point was 198 to 202 °C (dec.). Moreover, the “Selectivity (L2/L1)” value in the series with human LAT1 (hLAT1) [2] is on record as at most 0.1 times. The same compound displayed an IC50 at human LAT2 (hLAT2) below 1000 nM.

As to `N[C@@H](Cc1cccc(OCCc2ccc3ccccc3c2)c1)C(=O)O` [Example 59, 3-[2-(2-naphthyl)ethoxy]-L-phenylalanine], the melting point was 210 to 214 °C (dec.). Also, the “Selectivity (L2/L1)” value in the series with human LAT1 (hLAT1) [2] is at most 0.1 times. Also, the IC50 against human LAT2 (hLAT2) was below 1000 nM.

As to `CN(C)c1ccc(-c2nc3cccc(COc4c(Cl)cc(C[C@H](N)C(=O)O)cc4Cl)c3o2)cn1` [Example 65], the melting point was 233 to 236 °C (dec.). Further, on LAT1, 330 nM corresponded to half-maximal inhibition (IC50).

`N[C@@H](Cc1cccc(Oc2cccc3ccccc23)c1)C(=O)O` [Example 54]: the melting point was 180 to 186 °C (dec.). Also, the IC50 at LAT1 was found to be 710 nM.

In the case of `N[C@@H](Cc1cccc(Oc2cccc(-c3ccccc3)c2)c1)C(=O)O` [Example 53], the melting point is 203 to 206 °C (dec.). In addition, at LAT1, 120 nM corresponded to half-maximal inhibition (IC50).

On to `NC(Cc1cc(Cl)c(OCc2cccc3c2OC(c2ccccc2)CN3)c(Cl)c1)C(=O)O` (centres unmarked) [Example 71], for which the melting point was 199 to 204 °C (dec.). The compound further showed a 50% inhibitory concentration (IC50) against LAT1 of 370 nM.

These data come from US7345068B2, “Aromatic amino acid derivatives and medicinal compositions” (priority 2002, dated 2008).
